The subject of assay [1] is E. coli K-12 resistant wild type. It is filed as cell-based, Escherichia coli. The following applies: E. coli K-12 multi-resistant wild type.
The subject of assay [2] is E. coli N282 (L4 mutation). The assay is classed as cell-based, Escherichia coli. The following applies: E. coli N282; polymer alone.
A further assay concerns Escherichia coli strains. The assay is classed as cell-based. The following applies: isogenic pair of E. coli K-12 strains. The method, then:
(§1) MICs were determined by microdilution susceptibility testing in 96-well plates (by Nunc) using inocula of 10^5 bacteria per ml. Cell populations were evaluated by optical density measurements at 620 nm and were calibrated against a set of standards. Hundred (100) μl of a bacterial suspension were added to 100 μl of culture medium (control) or to 100 μl of culture medium containing various polymer concentrations in 2-fold serial dilutions. Inhibition of proliferation was determined by optical density measurements at 620 nm after an incubation period of 24 hours at 37° C.

Assay [3] concerns E. coli K-12 efflux knockout mutant. The assay is classed as cell-based, Escherichia coli. Particulars: E. coli K-12 strain with decreased levels of efflux pumps. The method, then: as §1
The test system of the next assay is E. coli CI14213. The assay is classed as cell-based, Escherichia coli. The following applies: for MIC of polymer: CI14213; for re-sensitizing effect of polymer on oxacillin: E. coli CI14213, polymer well below MIC (up to ⅛ MIC), 24 hours. The method, then:
as §1

For the next assay, the system named is MRSA 15903. As to the kind of experiment: microbe, parasite or virus in culture. Particulars: S. aureus CI-15903; +polymer (⅓ MIC) C12(5-ene)KKNC12KNH2. It is filed as cell-based, Staphylococcus aureus. The method, then: The fractionary inhibitory (FIC) concentration index for combinations of two antimicrobial agents was calculated as follows: FIC index=FICA+FICB=A/MICA+B/MICB where A and B are the MIC values of agent A and agent B in the combination, MICA and MICB are the MICs of agent A and agent B alone, and FICA and FICB are the FICs of agent A and agent B.
The FIC indexes were interpreted as follows: less than 0.5 indicates a clear re-sensitizing effect; from 0.5 to 4 indicates a marginal or null re-sensitizing effect; and over 4 indicates antagonism.
Experimental data for FIG. 4 were obtained as follows.

In assay [4] the test system is E. coli N281 (L22 mutation). It is filed as cell-based, Escherichia coli. The following applies: E. coli N281; polymer alone.

Several values for one entry are separate records, joined by “and”; a condition that tells them apart may be missing. Identical values can stand only once.

Turning to `CCCCCCCCCCCC(=O)N[C@@H](CCCCN)C(=O)NCCCCCCCC(=O)N[C@@H](CCCCN)C(=O)NCCCCCCCC(=O)N[C@@H](CCCCN)C(=O)NCCCCCCCC(=O)N[C@@H](CCCCN)C(=O)NCCCCCCCC(=O)N[C@@H](CCCCN)C(=O)NCCCCCCCC(=O)N[C@@H](CCCCN)C(=O)NCCCCCCCC(=O)N[C@@H](CCCCN)C(=O)NCCCCCCCC(=O)N[C@@H](CCCCN)C(N)=O` [C12K(NC8K)7NH2], the “effect of polymer on antibiotics potency” value in assay [1] is reported as “enhanced antibiotics potency”. Moreover, the MIC of polymer was 1.6 µM and 3.1 µM in assay [2]; 3.125 µg/mL in the assay with Escherichia coli strains; 3.1 µM in the assay on E. coli CI14213; 3.1 µM in assay [4]. In assay [3], the “effect of polymer on antibiotic MICs” value is recorded as “not altered significantly”. For the same molecule, the “re-sensitizing effect of polymer on oxacillin” value in the assay with E. coli CI14213 was “endowed potency to oxacillin”. In addition, the MIC in the assay with MRSA 15903 was determined as 12.5 µg/mL.
As for `CCCCCCCCCCCC(=O)N[C@@H](CCCCN)C(=O)NCCCCCCCC(=O)N[C@@H](CCCCN)C(=O)NCCCCCCCC(=O)N[C@@H](CCCCN)C(=O)NCCCCCCCC(=O)N[C@@H](CCCCN)C(=O)NCCCCCCCC(=O)N[C@@H](CCCCN)C(=O)NCCCCCCCC(=O)N[C@@H](CCCCN)C(N)=O` [C12K(NC8K)5NH2], the “effect of polymer on antibiotics potency” value in assay [1] is “enhanced antibiotics potency”. Further, the MIC of polymer worked out at 3.125 µg/mL with Escherichia coli strains and 6.2 µM in the assay on E. coli CI14213. In addition, the “effect of polymer on antibiotic MICs” value in assay [3] is given as “not altered significantly”. Further, the “re-sensitizing effect of polymer on oxacillin” value with E. coli CI14213 is reported as “endowed potency to oxacillin”.
